Consider 1 compound from patent US20090232735A1, “USE OF FRUCTOSE-BASED THERAPIES FOR THE TREATMENT OF CANCER” (CEDARS-SINAI MEDICAL CENTER, priority 2005, published 2009).

The test system of series [1] is pancreatic cancer development. The settings on record: cited from earlier work.
For series [2], the system named is ER positive MCF-7 breast cancer cells. The experiment in a line: Breast cancer cell proliferation (MTT assay), MCF-7. It counts as cell-based, human. How it is done:
Estrogen receptor (ER) positive MCF-7, and ER negative MDA-MB231 cells were plated in 5 mM fructose or glucose for times between 8-72 h, and proliferative rates measured using MTT assay. *, p<0.05; **, p<0.01.
FIG. 5 depicts fructose-mediated increased breast cancer proliferation in accordance with an embodiment of the present invention. ER positive MCF-7, and ER negative MDA-MB231 cells were plated in a range of fructose or glucose concentrations (5-25 mM) for 72 h, after which proliferative rates were measured using an MTT assay. *, p<0.05 for concentrations between 5-25 mM fructose versus glucose.
Standard media for breast cancer cell culture contain either 5-7 mM (low) and 12-25 mM (high) glucose concentrations. Estrogen receptor (ER) positive MCF-7, and ER negative MDA-MB231 cells were cultured overnight in 2 mM glucose standard DMEM medium containing 10% fetal bovine serum prior to incubation for periods between 8, and 72 hours in standard DMEM medium containing 10% fetal bovine serum, and 5 mM glucose or 5 mM fructose.
Proliferative rates were then measured in replicate (minimum of 6) aliquot wells of the breast cancer cells grown in glucose, or fructose containing medium. […] In separate experiments, proliferative rates of the MCF-7, and MDA-MB231 breast cancer cells were compared following culture in a range of fructose, and glucose concentrations (2-25 mM) for 72 hours.
In general terms: Tetrazolium assays rely on reduction of a dye to a coloured formazan, in cell work by metabolically active cells.

In series [3] the test system is MAPK pathway (pMEK, pRsk, pCREB) in MCF-7, and MDA-MB231 breast cancer cells. The series can be described thus: Western blot of MAPK pathway in breast cancer cells. It counts as cell-based, human. The protocol:
FIG. 11 depicts increased breast cancer phosphorylated-MEK, phosphorylated Rsk, and phosphorylated CREB in accordance with an embodiment of the present invention. MCF-7 breast cancer cells were incubated in 2 mM glucose, 5 mM glucose or 5 mM fructose for 24 hours, after which Western blot analysis on total protein lysates was employed to examine components of the MAP kinase pathway. […] Total MEK, Rsk, and CREB levels, and β-actin served as loading controls.
Although several signal transduction pathways are likely involved in the fructose-mediated enhanced breast cancer growth and while not wishing to be bound by any particular theory, the inventors believe that the MAP-kinase pathway is involved. The inventors have used Western blot analysis to examine the MAPK pathway in breast cancer cells incubated in 2 mM glucose, 5.5 mM glucose, and 5.5 mM fructose for 48 hours. […] Activation of MEK, and subsequently ERK results in phosphorylation of p90^Rsk, which leads to transcriptional activation of CREB and AP1, which bind to cAMP or AP1 response elements respectively, activating gene transcription and promoting cellular growth.

Series [4] relates to AP-1 activation in PANC-1 cells. The experiment in a line: AP-1 probe binding assay, PANC-1 nuclear extracts. It counts as cell-based, human. The settings on record: PANC-1, 5.5 mM fructose, 48 h. The protocol:
FIG. 24 depicts luciferase activity of PANC-1 cells and primary culture of surgically resected pancreatic tumor cells in accordance with an embodiment of the present invention. PANC-1 pancreatic cancer cells and a primary culture of a surgically resected pancreatic tumor were incubated in 2 mM glucose, 5.5 mM glucose or 5.5 mM fructose for 48 h, after which nuclear extracts were incubated with a biotinylated AP-1 probe, and detected by an antibody-linked colorimetric method. *, p<0.01
In separate experiments PANC-1 cells, and primary cultures of surgically resected pancreatic tumors were incubated in 2 mM glucose, or 5.5 mM glucose or 5.5 mM fructose for 48 h, after which nuclear extracts were incubated with a biotinylated AP-1 probe in binding buffer. AP-1/AP1 probe complexes were next conjugated to a streptavidin-coated assay plate and detected using an AP-1 specific antibody, followed by binding of a horseradish-peroxidase conjugated secondary antibody, and detection by a colorimetric reagent.

In series [5] the test system is primary cultures of fresh surgically resected pancreatic cancers. The experiment in a line: BRDU uptake in primary cultures of resected pancreatic cancers. It counts as cell-based, human. The settings on record: all 5 primary pancreatic cancers, 5.5 mM, 72 h. How it is done:
FIG. 18 depicts BRDU incorporation by pancreatic cells in accordance with an embodiment of the present invention. Freshly resected pancreatic cancers were mechanically, and enzymatically dispersed, and cells were pre-incubated in 2 mM glucose prior to treatment with 5.5 mM glucose or fructose for 72 h. BRDU (10 μM) was added to the medium at 48 h, and BRDU-uptake quantified at 72 h.
As immortalized cell-lines, such as PANC-1 pancreatic cancer cells, can become dedifferentiated after repeated passages, and in order to translate these findings in the PANC-1 cells to patients with pancreatic cancer, the inventors also examined proliferative rates in primary cultures of fresh surgically resected pancreatic cancers, following incubation in 2 mM, and 5.5 mM glucose or 5.5 mM fructose. Briefly, after mechanical and enzymatic (trypsin and DNAse) disaggregation, aliquots of tumor cells were seeded in 6-well plates, and incubated in standard DMEM media with 10% fetal bovine serum, and 2 mM glucose, 5.5 mM glucose, or 5.5 mM fructose for 72 h. As before in the PANC-1 experiments, BRDU (10 μM) was added in the […] of incubation in the sugars, following which BRDU-uptake was quantified.

In series [6] the test system is normal pancreas cells. The experiment in a line: Proliferation of normal pancreas cells (BRDU-uptake, MTS). It counts as cell-based, human. To be noted: 72 h. How it is done: FIG. 20 depicts a degree of increased proliferation of normal pancreatic cells in accordance with an embodiment of the present invention. Freshly resected normal pancreas tissues were mechanically and enzymatically dispersed, and cells were pre-incubated in 2 mM glucose prior to treatment with 5.5 mM glucose or fructose for 72 h. BRDU (10 μM) was added to the medium at 60 h, and BRDU-uptake quantified at 72 h.
In the course of obtaining fresh surgically resected pancreatic cancer tissue, the inventors also obtained some peripherally adjacent “normal” pancreatic tissue and normal tissue from a patient undergoing pancreas resection for complications of chronic pancreatitis. The inventors studied 5 of these “normal” pancreas tissues, and although caveats may exist given that they were derived from pancreases which were involved with another disease entity, the inventors believe they offer a useful comparator for the tumors. […] As before, BRDU (10 µM) was added, after which BRDU-uptake was quantified. In parallel experiments, when sufficient normal pancreatic issue was available, proliferative rates following 72 h incubation in the sugars were also measured using the MTS proliferation assay. […]

For `O=C(CO)[C@@H](O)[C@H](O)[C@H](O)CO` [fructose], the “relative risk of pancreatic cancer” value in series [1] (high fructose intake, women with increased BMI (>25) or sedentary lifestyle) is 3.17. Further, the “increased risk of pancreatic cancer development” value in series [1] (women reporting a high fructose-intake) was 57%. Besides, in series [2] (MCF-7, 5 mM fructose vs 5 mM glucose, 8-72 h), the “proliferative rates in fructose compared to glucose” value is reported as “higher proliferative rates”. Also, in series [2] (MCF-7, 72 hours, 5 mM fructose vs 5-fold higher glucose (25 mM)), the “proliferative rates in 5 mM fructose compared to 25 mM glucose” value is listed as “higher proliferative rates”. Besides, the phospho-MEK expression result in series [3] (5.5 mM fructose vs 5.5 and 2 mM glucose, MCF-7 and MDA-MB231) is “increased expression of phospho-MEK (pMEK)”. For the same compound, the “phospho-Rsk and phospho-CREB” value in series [3] (5.5 mM fructose, 24 h, vs 5.5 and 2 mM glucose) is “increased phospho-Rsk (pRsk), and phospho-CREB (pCREB)”. Also, the “AP-1 luciferase reporter activity higher than in 5.5 mM glucose” value in series [4] is listed as “approximately 40%”. The “proliferative rates (BRDU-uptake) in fructose compared to glucose” value in series [5] is listed as “higher proliferative rates”. Further, the “proliferative rates, 5.5 mM glucose vs 5.5 mM fructose” value in series [6] was “did not differ significantly”.
